For data set [1] the following is noted: cited from earlier work; for insolubility in water: Nakanishi et al.
The procedure of data set [2]:
In a flask, 10 g of PVP (k value of 17) was added to 990 grams of propylene glycol. This mixture was stirred until the PVP was completely dissolved. Two hundred fifty (250) mg of compound A (Table 1) was added to 10 ml of the above solution and the mixture was stirred until compound A was completely dissolved. This solution is called Indolocarbazole Propylene Glycol Concentrate (IPGC).
To test for the stability of an indolocarbazole in this solution, 1 ml aliquots of IPGC were removed and placed in small amber colored vials and kept at 4° C room temperature (about 25° C.), 37° C, and 60° C for 4, 7, 14 and 30 days. The sample at 4° C was kept in a refrigerator and received light when a door was opened. The sample at room temperature was placed on the laboratory bench and exposed to the fluorescent lights of the room during the day. The samples at 37° C and 60° C were kept in small incubators essentially in the dark. A 1 ml aliquot of the same IPGC was added to a clear vial and that vial was kept at 25° C in 300 foot candles of light for 4, 7, 14 and 30 days. At each interval of time, an aliquot of IPGC was removed from each vial, diluted 200 fold in DMSO and the concentration of compound A determined by reversed phase HPLC using a UV detector (290 nm).
In this example, compound A was further diluted in Indolocarbazole Diluent Solution. […]

The next data set in a line: physchem. To be noted: organic solvent or mixture. The method, then: In general, a solution of the concentrate can be prepared by combining a dispersant such as polyvinylpyrrolidone C-30 and a selected organic solvent such as propylene glycol into a beaker. The mixture is continuously stirred until completely dissolved. Solid PVP or other solution components may take 1-2 hours to dissolve completely at room temperature.
An amount of an indolocarbazole, for example, staurosporine, K-252a, or any one of indolocarbazole A, B, or C (Table 1) can each be individually weighed and added to a small aliquot of the aqueous solution, resulting in a 10 mg/ml solution after the indolocarbazole completely dissolves. Alternatively, a mixture of indolocarbazoles may be combined, weighed, and added to a small aliquot of the aqueous solution resulting in a 10 mg/ml solution after the indolocarbazole completely dissolves. An indolocarbazole solution can be stirred or shaken vigorously overnight. Any undissolved indolocarbazole is removed by standard centrifugation or filtration techniques. The concentration of solubilized indolocarbazole can be determined by reversed phase HPLC using a UV detector (290 nm).
The following HPLC conditions are used to determine the concentration of an indolocarbazole:
HPLC Column: Zorbax Rx C-18 4.6×250 mm, 5 micron particle size
Prior to injection of an indolocarbazole solution, there is allowed a 10 minute equilibration time.
Fifty g of PEG-400 were added to 50 ml of water and the mixture vigorously stirred until completely dissolved. One mg of either K-252a, staurosporine or the indolocarbazoles B or C (see Table 1) were added individually to a 100 μl aliquot of the PEG-400 solution and the resulting mixture was shaken overnight. The solution was clarified by centrifugation at 1000 rpm for 10 minutes. The supernatant was saved and any residue discarded. Ten μl of the supernatant was removed, diluted with DMSO (100:1) and the concentration of dissolved K-252a determined by HPLC.
Same as example 1 except that PEG-600 was used instead of PEG-400.
Same as example 1 except that PEG-1000 was used instead of PEG-400.
Same as example 1 except that 48 ml of water was used and 2 g of benzyl alcohol was added to the PEG-400 solution.
Same as example 2 except that 48 ml of water was used and 2 g of benzyl alcohol was added to the PEG-600 solution.
Same as example 3 except that 48 ml of water was used and 2 g of benzyl alcohol was added to the PEG-1000 solution.
2.5 g of benzyl alcohol was added to 47.5 g of PEG-400 and, in a separate container, 2.5 g of Pluronic F68 was added to 47.5 ml of water. Each solution was stirred until completely dissolved, then each solution was combined and stirred until homogeneous. One mg of K-252a was added to 100 μl of the solution and the resulting mixture was shaken overnight. The solution was clarified by centrifugation at 1000 rpm for 10 minutes. Ten (10) μl of supernatant was removed, diluted with DMSO (100:1), and the concentration of dissolved K-252a determined by HPLC.
Same as example 7 except that Pluronic™ L61 was used instead of Pluronic™ F68.
Same as example 7 except that Pluronic™ L64 was used instead of Pluronic™ F68.
Same as example 7 except that Tween™ 20 was used instead of Pluronic™ F68.
Same as example 7 except that Tween™ 80 was used instead of Pluronic™ F68.
Same as example 7 except that PVP was used instead of Pluronic™ F68 and PEG-300 was used instead of PEG-400.
Same as example 12 except that PEG-400 was used instead of PEG-300 and indolocarbazoles A, B or C were each solubilized individually in addition to K-252a.
Same as example 12 except that PEG-600 was used instead of PEG-300 and indolocarbazoles A, B or C were each solubilized individually in addition to K-252
Same as example 12 except that PEG-1000 was used instead of PEG-300.
Ten (10) g of Triton X-100 was added to 38 ml of water and the mixture was stirred thoroughly.

Where [3] appears, read: peg 400/ba/pvp/h2o, Concentration Obtained.
Where [4] appears, read: peg 600/ba/pvp/h2o, Concentration Obtained.
Where [5] appears, read: peg 600/ba/pvp/h2o, Concentration Obtained (saturation level).
[6] abbreviates: peg 1000/ba/pvp/h2o, Concentration Obtained.
Where [7] appears, read: 50% peg 400, 50% h2o, Concentration Obtained, Example 1: 50% PEG 400, 50% H2O, target 10 mg/ml.
Setting [8] is: 50% peg 600, 50% h2o, Concentration Obtained, Example 2: 50% PEG 600, 50% H2O, target 10 mg/ml.
Setting [9] is: 50% peg 1000, 50% h2o, Concentration Obtained, Example 3: 50% PEG 1000, 50% H2O, target 10 mg/ml.
The mark [10] stands for this setting: peg 400/ba/h2o, Concentration Obtained, Example 4: 50% PEG 400, 2% BA, 48% H2O, target 10 mg/ml.
Setting [11] is: peg 600/ba/h2o, Concentration Obtained, Example 5: 50% PEG 600, 2% BA, 48% H2O, target 10 mg/ml.
[12] abbreviates: peg 600/ba/pvp/h2o, Concentration Obtained (saturation level), Example 22: 50% PEG 600, 2% BA, 10% PVP, 38% H2O, 10 mg added.
Where [13] appears, read: peg 1000/ba/h2o, Concentration Obtained, Example 6: 50% PEG 1000, 2% BA, 48% H2O, target 10 mg/ml.

These results are taken from US5599808A, “Aqueous indolocarbazole solutions” (Cephalon, Inc., priority 1995, dated 1997).

Each structure is given as a SMILES string. Values after ≈ are worked out from the molar mass of the structure shown.

Broadly, the solubility (thermodynamic) is the concentration in solution at equilibrium with solid.

On to `C[C@@H]1O[C@@H](n2c3ccccc3c3c4c(c5c6ccccc6[nH]c5c32)CNC4=O)[C@H](O)[C@H](O)[C@H]1O` [Compound K-252d], for which, in data set [1], the insolubility in water result is listed as “insolubility”; the “solubility in non-aqueous, toxic solvents” value (“solubility in non-aqueous” for short) is reported as “soluble in non-aqueous, toxic solvents”; the solubility in water entry was “insoluble in water”.
`COC1(CO)CC2OC1(C)n1c3ccccc3c3c4c(c5c6ccccc6n2c5c31)C(=O)NC4` (centres unmarked) [Compound A]: the “Stability of Compound A in IPGC” value in data set [2] (0 min) is 100%. In addition, the “loss of activity in IPGC” value in data set [2] (propylene glycol with pvp, 720 h) is listed as 13.3%. The thermodynamic solubility was 10000 µg/mL (≈ 22.1 mM) in the data set “physchem” (setting [3]), 10000 µg/mL (≈ 22.1 mM) in the data set “physchem” (setting [4]), 40000 µg/mL (≈ 88.2 mM) in the data set “physchem” (setting [5]) and 10000 µg/mL (≈ 22.1 mM) in “physchem” (setting [6]).
On to `CC[S+]([O-])Cc1ccc2c(c1)c1c3c(c4c5ccccc5n5c4c1n2C1CC(O)(C(=O)OC)C5(C)O1)CNC3=O` (centres unmarked) [Compound C], for which the solubility (thermodynamic) in “physchem” (50% peg 400, 50% h2o, Concentration Obtained) came to 750 µg/mL (≈ 1.34 mM); in the data set “physchem” (50% peg 600, 50% h2o, Concentration Obtained) it was 500 µg/mL (≈ 0.897 mM); in the data set “physchem” (50% peg 1000, 50% h2o, Concentration Obtained) it was 720 µg/mL (≈ 1.29 mM); in the data set “physchem” (peg 400/ba/h2o, Concentration Obtained) it was 1010 µg/mL (≈ 1.81 mM); in the data set “physchem” (setting [3]) it was 4000 µg/mL (≈ 7.17 mM); in the data set “physchem” (peg 600/ba/h2o, Concentration Obtained), 890 µg/mL (≈ 1.6 mM). In addition, the solubility (thermodynamic) was 4600 µg/mL (≈ 8.25 mM) in the data set “physchem” (setting [4]); 4600 µg/mL (≈ 8.25 mM) in the data set “physchem” (setting [5]); 4630 µg/mL (≈ 8.3 mM) in the data set “physchem” (peg 600/ba/triton x-100/h2o, Concentration Obtained); 4790 µg/mL (≈ 8.59 mM) in “physchem” (peg 600/ba/tween 80/h2o, Concentration Obtained); 800 µg/mL (≈ 1.43 mM) in “physchem” (peg 1000/ba/h2o, Concentration Obtained); 6000 µg/mL (≈ 10.8 mM) in the data set “physchem” (setting [6]). Besides, the thermodynamic solubility in “physchem” (peg 1000/ba/pvp/h2o, Concentration Obtained (saturation level)) is 5000 µg/mL (≈ 8.97 mM).
Regarding `CC12OC(CC1(O)C(=O)O)n1c3ccccc3c3c4c(c5c6ccccc6n2c5c31)CNC4=O` (centres unmarked) [Compound K-252b], the “solubility in non-aqueous” value in data set [1] is reported as “soluble in non-aqueous, toxic solvents”.
`O=C1NCc2c1c1c3ccccc3[nH]c1c1[nH]c3ccccc3c21` [Compound K-252c]: in data set [1], the insolubility in water result is reported as “insolubility”; the “solubility in non-aqueous” value is “soluble in non-aqueous, toxic solvents”; the solubility in water result is recorded as “insoluble in water”.
For `COC(=O)C1(O)CC2OC1(C)n1c3ccccc3c3c4c(c5c6cc(O)ccc6n2c5c31)C(=O)NC4` (centres unmarked) [Compound B], the solubility (thermodynamic) in the data set “physchem” (setting [7]) was determined as 3150 µg/mL (≈ 6.52 mM); in the data set “physchem” (setting [8]), 2680 µg/mL (≈ 5.54 mM); in the data set “physchem” (setting [9]) it was 4440 µg/mL (≈ 9.18 mM); in “physchem” (setting [10]), 3260 µg/mL (≈ 6.74 mM); in “physchem” (peg 400/ba/pvp/h2o, Concentration Obtained, Example 13: 47.5% PEG 400, 2.5% BA, 2.5% PVP, 47.5% H2O, target 10 mg/ml), 10000 µg/mL (≈ 20.7 mM); in the data set “physchem” (setting [11]), 3590 µg/mL (≈ 7.43 mM). Moreover, the solubility (thermodynamic) in the data set “physchem” (peg 600/ba/pvp/h2o, Concentration Obtained (saturation level), Example 20: 47.5% PEG 600, 2.5% BA, 2.5% PVP, 47.5% H2O, 10 mg added) turned out to be 10000 µg/mL (≈ 20.7 mM); in the data set “physchem” (setting [12]), 16400 µg/mL (≈ 33.9 mM); in the data set “physchem” (peg 600/ba/pvp/h2o, Concentration Obtained, Example 14: 47.5% PEG 600, 2.5% BA, 2.5% PVP, 47.5% H2O, target 10 mg/ml) it was 10000 µg/mL (≈ 20.7 mM); in “physchem” (setting [13]), 5020 µg/mL (≈ 10.4 mM); in the data set “physchem” (peg 1000/ba/pvp/h2o, Concentration Obtained, Example 19: 40% PEG 1000, 2% BA, 10% PVP, 48% H2O, target 10 mg/ml), 10000 µg/mL (≈ 20.7 mM).
For the molecule `CN[C@@H]1C[C@H]2O[C@@](C)([C@@H]1OC)n1c3ccccc3c3c4c(c5c6ccccc6n2c5c31)C(=O)NC4` [Staurosporine, staurosporine], the thermodynamic solubility in the data set “physchem” (setting [7]) turned out to be 710 µg/mL (≈ 1.52 mM); in “physchem” (setting [8]), 1890 µg/mL (≈ 4.05 mM); in the data set “physchem” (setting [9]), 1650 µg/mL (≈ 3.54 mM); in “physchem” (setting [10]), 1210 µg/mL (≈ 2.59 mM); in “physchem” (setting [11]), 1890 µg/mL (≈ 4.05 mM); in the data set “physchem” (setting [12]) it was 8400 µg/mL (≈ 18 mM). In addition, the solubility (thermodynamic) in “physchem” (peg 600/ba/pvp/h2o, Concentration Obtained, Example 18: 50% PEG 600, 2% BA, 10% PVP, 38% H2O, target 10 mg/ml) came out at 8410 µg/mL (≈ 18 mM); in “physchem” (peg 600/ba/triton x-100/h2o, Concentration Obtained, Example 16: 50% PEG 600, 2% BA, 10% Triton X-100, 38% H2O, target 10 mg/ml) it was 7590 µg/mL (≈ 16.3 mM); in “physchem” (peg 600/ba/tween 80/h2o, Concentration Obtained, Example 17: 50% PEG 600, 2% BA, 10% Tween 80, 38% H2O, target 10 mg/ml), 4600 µg/mL (≈ 9.86 mM); in the data set “physchem” (setting [13]) it was 1680 µg/mL (≈ 3.6 mM).
